Targets include Aurora kinase A (Homo sapiens, UniProt O14965); Focal adhesion kinase 1 (Homo sapiens, UniProt Q05397); Aurora kinase B (Homo sapiens, UniProt Q96GD4).
What all share (assay type): functional
Test [1] deals with Protein disulfide-isomerase (Homo sapiens, UniProt P07237). Put plainly: PDI inhibitors, insulin aggregation turbidity, dose response, biochemical, absorbance, cherry-picked samples (AID 602350).
Test [2] has as its target T1, Apoptotic protease-activating factor 1 (Homo sapiens, UniProt O14727).
T1 sequence (O14727 whole entry): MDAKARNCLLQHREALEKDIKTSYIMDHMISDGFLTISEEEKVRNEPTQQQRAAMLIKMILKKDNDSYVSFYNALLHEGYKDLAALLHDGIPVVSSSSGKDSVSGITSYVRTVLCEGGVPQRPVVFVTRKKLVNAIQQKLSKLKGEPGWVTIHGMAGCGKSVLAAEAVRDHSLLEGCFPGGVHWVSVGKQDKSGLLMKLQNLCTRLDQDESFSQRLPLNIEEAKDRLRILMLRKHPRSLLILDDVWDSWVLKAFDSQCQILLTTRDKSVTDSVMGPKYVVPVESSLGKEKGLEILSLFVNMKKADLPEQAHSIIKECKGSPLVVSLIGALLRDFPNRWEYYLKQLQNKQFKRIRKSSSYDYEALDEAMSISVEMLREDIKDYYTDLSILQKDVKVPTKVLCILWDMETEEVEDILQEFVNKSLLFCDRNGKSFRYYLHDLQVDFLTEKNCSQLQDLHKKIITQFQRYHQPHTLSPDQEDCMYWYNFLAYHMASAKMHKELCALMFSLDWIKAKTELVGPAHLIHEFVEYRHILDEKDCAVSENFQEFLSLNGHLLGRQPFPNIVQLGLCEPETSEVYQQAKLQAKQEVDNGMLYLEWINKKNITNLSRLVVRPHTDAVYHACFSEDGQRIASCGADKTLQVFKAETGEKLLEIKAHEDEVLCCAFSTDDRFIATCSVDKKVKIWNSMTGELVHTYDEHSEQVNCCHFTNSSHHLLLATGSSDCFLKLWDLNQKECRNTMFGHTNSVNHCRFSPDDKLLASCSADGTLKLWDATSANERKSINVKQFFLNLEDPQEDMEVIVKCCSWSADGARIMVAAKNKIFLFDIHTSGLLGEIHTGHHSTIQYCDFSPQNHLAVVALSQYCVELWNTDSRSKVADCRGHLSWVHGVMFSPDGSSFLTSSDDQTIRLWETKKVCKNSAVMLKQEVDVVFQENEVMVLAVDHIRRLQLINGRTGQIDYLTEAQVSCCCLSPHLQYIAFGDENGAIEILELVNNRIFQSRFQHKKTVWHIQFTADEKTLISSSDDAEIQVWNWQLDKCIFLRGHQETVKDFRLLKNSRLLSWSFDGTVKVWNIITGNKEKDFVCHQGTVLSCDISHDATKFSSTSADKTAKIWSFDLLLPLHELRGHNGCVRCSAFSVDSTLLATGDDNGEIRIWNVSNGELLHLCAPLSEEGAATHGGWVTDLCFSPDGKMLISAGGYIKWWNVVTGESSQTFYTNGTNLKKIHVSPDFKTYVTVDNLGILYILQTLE
The test can be described thus: SAR analysis of small molecule inhibitors of Apaf-1 in a Fluorescent assay. As to conditions: read-out: IC50_Mean.

Test [3] has as its target T2, Sphingosine 1-phosphate receptor 4 (Homo sapiens, UniProt O95977).
T2 sequence (O95977 whole entry): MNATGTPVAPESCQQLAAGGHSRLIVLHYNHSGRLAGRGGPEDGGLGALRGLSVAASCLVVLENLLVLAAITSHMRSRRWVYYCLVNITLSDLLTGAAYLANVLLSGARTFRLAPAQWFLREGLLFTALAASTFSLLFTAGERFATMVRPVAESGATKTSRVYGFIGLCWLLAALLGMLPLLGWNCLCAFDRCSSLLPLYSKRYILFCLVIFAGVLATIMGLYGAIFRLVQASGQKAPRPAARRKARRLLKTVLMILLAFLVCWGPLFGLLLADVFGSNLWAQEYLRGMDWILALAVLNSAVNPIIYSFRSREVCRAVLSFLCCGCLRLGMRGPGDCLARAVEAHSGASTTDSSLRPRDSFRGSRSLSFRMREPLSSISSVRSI
The test can be described thus: Late-stage fluorescence-based dose-response cell-based counterscreen assay to identify agonists of the Sphingosine 1-Phosphate Receptor 3 (S1P3): Sphingosine 1-Phosphate Receptor 4 (S1P4) agonist assay. For orientation: The purpose of a counterscreen is to sort out artefacts and off-target activity.

Test [4] has as its target Sphingosine 1-phosphate receptor 2 (Homo sapiens, UniProt O95136). The test can be described thus: Late-stage fluorescence-based dose-response cell-based counterscreen assay to identify agonists of the Sphingosine 1-Phosphate Receptor 3 (S1P3): Sphingosine 1-Phosphate Receptor 2 (S1P2) agonist assay.
The target in test [5] is Cyclin-dependent kinase 19 (Homo sapiens, UniProt Q9BWU1). The test can be described thus: Navigating the Kinome. Panel member name: CDC2L6.
Test [6] has as its target ALK tyrosine kinase receptor (Homo sapiens, UniProt Q9UM73).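 Also: ALK tested as one member of a kinase panel screen.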
Test [7] has as its target Inhibitor of nuclear factor kappa-B kinase subunit epsilon (Homo sapiens, UniProt Q14164). The test can be described thus: Navigating the Kinome. Panel member name: IKBKE.
The next test has as its target LIM domain kinase 1 (Homo sapiens, UniProt P53667). The test can be described thus: Navigating the Kinome. Panel member name: LIMK1.
In test [8] the target is Serine/threonine-protein kinase Nek2 (Homo sapiens, UniProt P51955).
In test [9] the target is G protein-coupled receptor kinase 5 (Homo sapiens, UniProt P34947). Put plainly: Navigating the Kinome. Panel member name: GPRK5.
Test [10] addresses Tyrosine-protein kinase Fyn (Homo sapiens, UniProt P06241).
Test [11] deals with Dual specificity protein kinase CLK4 (Homo sapiens, UniProt Q9HAZ1).
For test [12], the target named is Protein kinase C theta type (Homo sapiens, UniProt Q04759). Put plainly: Navigating the Kinome. Panel member name: PRKCQ.
Test [13] concerns the target Dual specificity tyrosine-phosphorylation-regulated kinase 1A (Homo sapiens, UniProt Q13627).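 Also: measured against DYRK1A as one member of a broad kinome profiling panel.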
The target of test [14] is Rho-associated protein kinase 1 (Homo sapiens, UniProt Q13464).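 Also: measured within a broad kinome-wide panel profiling many kinases.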
The target of test [15] is Mitogen-activated protein kinase 8 (Homo sapiens, UniProt P45983).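 Also: value comes from one member of a kinome-wide kinase profiling panel.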
The target of test [16] is Leukocyte tyrosine kinase receptor (Homo sapiens, UniProt P29376). The test can be described thus: Navigating the Kinome. Panel member name: LTK.
In test [17] the target is Dual specificity mitogen-activated protein kinase kinase 1 (Homo sapiens, UniProt Q02750). Put plainly: Navigating the Kinome. Panel member name: MAP2K1.
Test [18] has as its target Dual specificity mitogen-activated protein kinase kinase 2 (Homo sapiens, UniProt P36507). The test can be described thus: Navigating the Kinome. Panel member name: MAP2K2.
The target in test [19] is Receptor-type tyrosine-protein kinase FLT3 (Homo sapiens, UniProt P36888).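 Also: FLT3 was tested as one member of a kinome-wide kinase panel.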
Test [20] deals with Cyclin-dependent kinase 7 (Homo sapiens, UniProt P50613).
Test [21] deals with Cyclin-dependent kinase 9 (Homo sapiens, UniProt P50750).
Test [22] concerns the target Macrophage colony-stimulating factor 1 receptor (Homo sapiens, UniProt P07333).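 Also: value comes from the Navigating the Kinome screening panel, CSF1R member.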
Test [23] addresses cAMP-dependent protein kinase catalytic subunit PRKX (Homo sapiens, UniProt P51817).
The target in test [24] is Platelet-derived growth factor receptor beta (Homo sapiens, UniProt P09619).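 Also: value comes from a kinome panel, with PDGFRB tested as one panel member.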
Test [25] addresses Death-associated protein kinase 3 (Homo sapiens, UniProt O43293).
Test [26] addresses Glycogen synthase kinase-3 alpha (Homo sapiens, UniProt P49840).
Test [27] has as its target Casein kinase I isoform alpha (Homo sapiens, UniProt P48729).
Test [28] deals with Cyclin-dependent kinase 8 (Homo sapiens, UniProt P49336). The test can be described thus: Navigating the Kinome. Panel member name: CDK8.
Test [29] deals with Tyrosine-protein kinase JAK3 (Homo sapiens, UniProt P52333).
The target in test [30] is Tyrosine-protein kinase JAK2 (Homo sapiens, UniProt O60674).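 Also: JAK2 tested as one member of a kinase panel.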
Test [31] has as its target Hepatocyte growth factor receptor (Homo sapiens, UniProt P08581).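 Also: kinase panel profiling across the kinome, with MET as the panel member.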
The next test has as its target Activin receptor type-1 (Homo sapiens, UniProt Q04771). The test can be described thus: Navigating the Kinome. Panel member name: ACVR1.
Test [32] has as its target Serine/threonine-protein kinase PAK 4 (Homo sapiens, UniProt O96013).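 Also: value obtained within a kinome profiling panel in which PAK4 was one of the panel members.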
In test [33] the target is Tyrosine-protein kinase Lck (Homo sapiens, UniProt P06239).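 Also: lck was assayed as one member of a kinase panel.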
In test [34] the target is Serine/threonine-protein kinase pim-1 (Homo sapiens, UniProt P11309).
The target of test [35] is Cyclin-dependent kinase 5 (Homo sapiens, UniProt Q00535).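 Also: CDK5 measured as one member of a kinase profiling panel.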
In test [36] the target is Ribosomal protein S6 kinase alpha-3 (Homo sapiens, UniProt P51812).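 Also: measured within a kinome-wide profiling panel.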
For test [37], the target named is BDNF/NT-3 growth factors receptor (Homo sapiens, UniProt Q16620).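 Also: NTRK2 measured as one member of a broad kinome-wide kinase profiling panel.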
Test [38] deals with Leucine-rich repeat serine/threonine-protein kinase 2 (Homo sapiens, UniProt Q5S007).
In test [39] the target is 5'-AMP-activated protein kinase catalytic subunit alpha-1 (Homo sapiens, UniProt Q13131).
Test [40] deals with Insulin-like growth factor 1 receptor (Homo sapiens, UniProt P08069). The test can be described thus: Navigating the Kinome. Panel member name: IGF1R.
For test [41], the target named is Dual specificity tyrosine-phosphorylation-regulated kinase 1B (Homo sapiens, UniProt Q9Y463). Put plainly: Navigating the Kinome. Panel member name: DYRK1B.
In another test the target is Activated CDC42 kinase 1 (Homo sapiens, UniProt Q07912). Put plainly: Navigating the Kinome. Panel member name: ACK1.
For test [42], the target named is Serine/threonine-protein kinase Chk1 (Homo sapiens, UniProt O14757).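 Also: measured as one member of a kinome-wide kinase profiling panel.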
Test [43] addresses Vascular endothelial growth factor receptor 2 (Homo sapiens, UniProt P35968).
Test [44] deals with Proto-oncogene tyrosine-protein kinase receptor Ret (Homo sapiens, UniProt P07949).
For test [45], the target named is Serine/threonine-protein kinase TAO1 (Homo sapiens, UniProt Q7L7X3).
Test [46] deals with Mitogen-activated protein kinase kinase kinase kinase 2 (Homo sapiens, UniProt Q12851).
Test [47] deals with Tyrosine-protein kinase receptor TYRO3 (Homo sapiens, UniProt Q06418).

The text below walks through data of ChEMBL document CHEMBL1201862, “PubChem BioAssay data set” (2004).

Activity calls are given as the source filed them.

Sequence of ALK tyrosine kinase receptor (Q9UM73 whole entry): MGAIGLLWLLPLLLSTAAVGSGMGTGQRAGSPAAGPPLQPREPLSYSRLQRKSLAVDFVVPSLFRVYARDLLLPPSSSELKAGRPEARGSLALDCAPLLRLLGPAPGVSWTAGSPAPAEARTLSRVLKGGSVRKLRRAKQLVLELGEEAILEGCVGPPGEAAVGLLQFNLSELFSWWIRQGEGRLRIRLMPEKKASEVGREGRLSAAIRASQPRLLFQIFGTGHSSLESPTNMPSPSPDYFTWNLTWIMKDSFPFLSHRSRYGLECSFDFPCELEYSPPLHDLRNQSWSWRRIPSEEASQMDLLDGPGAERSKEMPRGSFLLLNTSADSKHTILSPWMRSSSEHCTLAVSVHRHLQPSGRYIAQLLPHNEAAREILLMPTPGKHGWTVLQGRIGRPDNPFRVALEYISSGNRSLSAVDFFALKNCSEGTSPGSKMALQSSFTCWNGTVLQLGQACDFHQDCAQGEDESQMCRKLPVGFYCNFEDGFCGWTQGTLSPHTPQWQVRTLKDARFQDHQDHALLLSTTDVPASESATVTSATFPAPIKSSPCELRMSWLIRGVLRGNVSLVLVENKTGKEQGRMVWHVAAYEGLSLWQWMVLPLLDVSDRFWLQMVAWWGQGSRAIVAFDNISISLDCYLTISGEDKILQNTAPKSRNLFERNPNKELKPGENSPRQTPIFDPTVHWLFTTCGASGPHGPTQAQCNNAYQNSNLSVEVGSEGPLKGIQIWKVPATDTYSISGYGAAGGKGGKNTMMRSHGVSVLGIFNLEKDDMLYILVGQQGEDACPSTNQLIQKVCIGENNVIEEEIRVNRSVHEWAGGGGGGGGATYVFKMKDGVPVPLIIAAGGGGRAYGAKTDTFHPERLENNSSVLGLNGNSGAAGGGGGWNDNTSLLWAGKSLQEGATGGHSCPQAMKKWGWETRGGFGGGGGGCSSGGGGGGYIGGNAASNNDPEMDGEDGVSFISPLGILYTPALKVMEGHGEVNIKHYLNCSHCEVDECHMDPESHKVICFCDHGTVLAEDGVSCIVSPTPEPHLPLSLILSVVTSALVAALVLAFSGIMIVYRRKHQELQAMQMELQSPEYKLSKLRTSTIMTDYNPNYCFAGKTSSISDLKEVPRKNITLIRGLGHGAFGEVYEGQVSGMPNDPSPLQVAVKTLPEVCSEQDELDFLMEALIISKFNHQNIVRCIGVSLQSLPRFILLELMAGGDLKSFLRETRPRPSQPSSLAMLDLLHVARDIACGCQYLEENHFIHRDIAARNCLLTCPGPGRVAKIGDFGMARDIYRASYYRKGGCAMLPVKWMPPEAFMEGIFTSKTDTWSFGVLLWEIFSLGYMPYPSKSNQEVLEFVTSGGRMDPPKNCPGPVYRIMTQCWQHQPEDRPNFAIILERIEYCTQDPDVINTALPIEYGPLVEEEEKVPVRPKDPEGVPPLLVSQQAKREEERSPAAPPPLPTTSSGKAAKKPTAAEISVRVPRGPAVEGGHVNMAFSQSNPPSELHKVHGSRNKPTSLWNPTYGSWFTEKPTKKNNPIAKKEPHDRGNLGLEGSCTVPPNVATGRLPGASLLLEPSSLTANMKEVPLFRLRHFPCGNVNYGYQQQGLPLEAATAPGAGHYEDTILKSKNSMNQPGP
Sequence of Aurora kinase A (O14965 whole entry): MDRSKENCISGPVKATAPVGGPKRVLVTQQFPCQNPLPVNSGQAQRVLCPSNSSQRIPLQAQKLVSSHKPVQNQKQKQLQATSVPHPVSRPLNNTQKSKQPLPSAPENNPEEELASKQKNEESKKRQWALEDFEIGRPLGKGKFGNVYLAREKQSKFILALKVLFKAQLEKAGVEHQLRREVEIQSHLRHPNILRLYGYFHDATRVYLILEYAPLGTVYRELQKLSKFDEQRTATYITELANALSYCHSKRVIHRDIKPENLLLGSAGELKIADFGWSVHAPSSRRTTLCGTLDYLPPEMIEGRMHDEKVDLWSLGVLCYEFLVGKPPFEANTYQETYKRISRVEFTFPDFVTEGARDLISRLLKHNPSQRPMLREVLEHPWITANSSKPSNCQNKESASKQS
Sequence of Serine/threonine-protein kinase Chk1 (O14757 whole entry): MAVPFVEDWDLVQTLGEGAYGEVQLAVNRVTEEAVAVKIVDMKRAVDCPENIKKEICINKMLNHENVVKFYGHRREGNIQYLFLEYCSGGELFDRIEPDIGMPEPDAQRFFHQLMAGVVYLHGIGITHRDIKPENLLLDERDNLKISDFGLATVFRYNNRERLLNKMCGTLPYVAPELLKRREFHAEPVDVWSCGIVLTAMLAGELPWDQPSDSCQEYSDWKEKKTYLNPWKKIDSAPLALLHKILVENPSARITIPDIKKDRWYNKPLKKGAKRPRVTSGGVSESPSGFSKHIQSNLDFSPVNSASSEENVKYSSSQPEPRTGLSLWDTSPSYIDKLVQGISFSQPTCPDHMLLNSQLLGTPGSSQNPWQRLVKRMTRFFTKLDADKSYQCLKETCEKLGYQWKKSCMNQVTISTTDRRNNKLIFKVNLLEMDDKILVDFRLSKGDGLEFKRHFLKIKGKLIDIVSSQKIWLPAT
Sequence of Vascular endothelial growth factor receptor 2 (P35968 whole entry): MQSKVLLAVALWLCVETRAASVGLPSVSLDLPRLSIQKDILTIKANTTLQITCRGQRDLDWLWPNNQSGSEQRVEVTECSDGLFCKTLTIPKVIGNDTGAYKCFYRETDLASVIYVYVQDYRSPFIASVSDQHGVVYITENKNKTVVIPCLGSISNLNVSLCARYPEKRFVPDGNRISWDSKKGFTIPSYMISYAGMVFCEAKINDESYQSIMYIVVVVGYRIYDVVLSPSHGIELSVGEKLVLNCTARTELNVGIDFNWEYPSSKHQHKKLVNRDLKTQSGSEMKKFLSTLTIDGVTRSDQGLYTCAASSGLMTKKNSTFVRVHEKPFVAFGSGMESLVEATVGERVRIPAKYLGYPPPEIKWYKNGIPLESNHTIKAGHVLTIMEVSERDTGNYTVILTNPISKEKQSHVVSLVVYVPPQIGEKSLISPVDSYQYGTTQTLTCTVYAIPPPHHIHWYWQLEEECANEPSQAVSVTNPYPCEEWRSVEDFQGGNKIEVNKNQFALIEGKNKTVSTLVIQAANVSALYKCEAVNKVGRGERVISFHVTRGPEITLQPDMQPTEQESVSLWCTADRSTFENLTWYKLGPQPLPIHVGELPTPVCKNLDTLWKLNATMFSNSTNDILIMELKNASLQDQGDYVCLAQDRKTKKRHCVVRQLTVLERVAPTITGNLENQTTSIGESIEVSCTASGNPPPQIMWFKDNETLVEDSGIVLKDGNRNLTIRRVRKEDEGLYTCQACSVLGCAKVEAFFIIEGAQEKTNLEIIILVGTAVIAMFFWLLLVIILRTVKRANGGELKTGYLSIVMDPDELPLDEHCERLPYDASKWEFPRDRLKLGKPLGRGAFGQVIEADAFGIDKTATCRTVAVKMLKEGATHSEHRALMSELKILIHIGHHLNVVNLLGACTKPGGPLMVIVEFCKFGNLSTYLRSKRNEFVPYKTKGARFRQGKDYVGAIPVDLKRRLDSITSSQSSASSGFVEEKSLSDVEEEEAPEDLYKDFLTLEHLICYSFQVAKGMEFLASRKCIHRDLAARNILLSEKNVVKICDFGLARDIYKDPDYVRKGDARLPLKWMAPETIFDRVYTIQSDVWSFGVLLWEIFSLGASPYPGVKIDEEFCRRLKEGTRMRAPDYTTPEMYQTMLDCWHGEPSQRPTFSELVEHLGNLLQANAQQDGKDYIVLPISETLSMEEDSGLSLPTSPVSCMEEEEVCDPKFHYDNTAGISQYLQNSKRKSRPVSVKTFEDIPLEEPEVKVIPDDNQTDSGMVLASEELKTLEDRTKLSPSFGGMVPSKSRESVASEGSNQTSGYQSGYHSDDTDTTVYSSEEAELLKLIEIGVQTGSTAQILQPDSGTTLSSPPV
Sequence of Platelet-derived growth factor receptor beta (P09619 whole entry): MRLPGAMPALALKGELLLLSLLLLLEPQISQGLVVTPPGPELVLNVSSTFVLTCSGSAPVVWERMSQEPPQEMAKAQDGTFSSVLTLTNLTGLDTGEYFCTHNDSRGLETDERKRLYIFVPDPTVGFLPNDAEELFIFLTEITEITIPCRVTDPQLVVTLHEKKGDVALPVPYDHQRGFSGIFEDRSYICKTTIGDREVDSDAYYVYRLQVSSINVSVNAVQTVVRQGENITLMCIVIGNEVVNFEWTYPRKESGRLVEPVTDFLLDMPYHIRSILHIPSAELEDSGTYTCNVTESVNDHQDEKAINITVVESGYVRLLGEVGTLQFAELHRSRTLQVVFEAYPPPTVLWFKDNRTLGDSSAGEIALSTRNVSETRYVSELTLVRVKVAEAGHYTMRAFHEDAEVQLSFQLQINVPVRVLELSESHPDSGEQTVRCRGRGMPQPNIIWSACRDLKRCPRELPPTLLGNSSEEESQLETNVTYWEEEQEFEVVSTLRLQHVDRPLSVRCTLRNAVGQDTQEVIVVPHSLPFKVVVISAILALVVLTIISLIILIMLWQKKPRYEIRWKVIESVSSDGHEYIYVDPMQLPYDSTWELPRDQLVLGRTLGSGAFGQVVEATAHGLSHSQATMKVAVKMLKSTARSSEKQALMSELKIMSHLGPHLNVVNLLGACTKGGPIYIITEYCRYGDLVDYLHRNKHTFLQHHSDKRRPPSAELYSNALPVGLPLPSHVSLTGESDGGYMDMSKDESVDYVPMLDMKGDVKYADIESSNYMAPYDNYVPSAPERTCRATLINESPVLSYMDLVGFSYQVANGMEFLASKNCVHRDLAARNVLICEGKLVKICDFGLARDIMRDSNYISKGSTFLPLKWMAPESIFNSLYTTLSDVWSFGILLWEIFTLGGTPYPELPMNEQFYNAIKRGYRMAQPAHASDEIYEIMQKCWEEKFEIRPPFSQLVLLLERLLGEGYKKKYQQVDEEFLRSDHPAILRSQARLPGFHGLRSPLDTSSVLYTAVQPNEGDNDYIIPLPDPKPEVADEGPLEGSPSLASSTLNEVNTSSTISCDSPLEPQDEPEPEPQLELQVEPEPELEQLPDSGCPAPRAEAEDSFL

As a reminder, the AC50 is the concentration at which the activity in the assay is half-maximal. As to `Cc1noc(C)c1S(=O)(=O)Nc1ccc2c(c1)CC(=O)N([C@H](C)CO)C[C@H](C)[C@@H](CN(C)S(=O)(=O)c1ccc(F)cc1)O2`, the half-maximal activity concentration (AC50) in [1] is 19500 nM (active).

For `Cn1cc(C(CC(=O)c2ccc(C(C)(C)C)cc2)C(=O)O)c2ccccc21` (centres undefined), the IC50 in [2] was 90500 nM (active).

For orientation: EC50 means the concentration needed to bring the measured effect to its halfway point. For the compound `O=C(c1cc(-c2ccccc2)on1)N(C1CCCCC1)C1CCCC1`, the EC50 in test [3] and in test [4] was > 50000 nM (inactive) each time.

By Ki is commonly meant the equilibrium dissociation constant of an inhibitor or competing ligand from its target. Turning to `CN(C)CCc1ccc(Nc2nccc(-c3c(-c4cccc(C(O)CO)c4)nc4ccccn34)n2)cc1` (centres undefined), the Ki in test [5] and in test [6] was 3160 nM (active) throughout.

For the compound `NC(=O)c1ccc2nc(-c3ccc([N+](=O)[O-])o3)cn2c1`, the Ki in test [7] is 126 nM (active); at LIM domain kinase 1, 158 nM (active); in [8], 63.1 nM (active); in [9] it was 158 nM (active); in [6], 631 nM (active); in [10], 2000 nM (active). Moreover, the Ki in [11] is 20 nM (active); in [12] it was 251 nM (active); on Aurora kinase A it was 126 nM (active); in [13] it was 31.6 nM (active); in test [14], 1000 nM (active); on Focal adhesion kinase 1, 316 nM (active). The Ki is 1580 nM (active) in test [15]; 79.4 nM (active) in [16]; 1580 nM (active) in [17]; 1000 nM (active) in test [18]; 2510 nM (active) in test [19]; 631 nM (active) in [20]. Besides, the inhibition constant Ki in [21] is 39.8 nM (active); in test [22], 1260 nM (active); in [23] it was 631 nM (active); in test [24] it was 1000 nM (active); in [25], 251 nM (active); in [26], 1000 nM (active). The inhibition constant (Ki) was 126 nM (active) in [27]; 126 nM (active) in test [28]; 794 nM (active) in test [29]; 1260 nM (active) in test [30]; 50.1 nM (active) in test [31]; 200 nM (active) on Activin receptor type-1. Further, the Ki in test [32] was 794 nM (active); in test [33], > 6310 nM (inactive); in [34] it was 631 nM (active); in test [35], 126 nM (active); in test [36], 631 nM (active); on Aurora kinase B, 251 nM (active). Further, the Ki is > 3980 nM (inactive) in [37]; 126 nM (active) in test [38]; 158 nM (active) in [39]; > 2510 nM (inactive) in test [40]; 79.4 nM (active) in [41]; 251 nM (active) at Activated CDC42 kinase 1. The inhibition constant (Ki) in test [42] is 50.1 nM (active); in test [43], > 2510 nM (inactive); in test [44], 316 nM (active); in [45], 1260 nM (active); in test [46], 251 nM (active); in test [47], 100 nM (active).
